{
  "source": "patent US9476099B2",
  "about": "(TRUSTEES OF DARTMOUTH COLLEGE, priority 2012, dated 2016)",
  "tested_on": "NT2/D1-R1 control and DNMT3B knockdown cells",
  "assay": "Genome-wide expression analysis with PAM clusters, control and DNMT3B knockdown cells (Tables 8-14)",
  "settings": "sh-Ctrl + aza; 10 nM decitabine, 3 days",
  "note": "“And” between values parts separate entries of the source, which are not always exact repeats. Identical values can stand only once.",
  "data": [
    {"smiles": "Nc1ncn([C@H]2C[C@H](O)[C@@H](CO)O2)c(=O)n1", "note": "[aza]", "values": [
      {"measurement": "ADAMTSL2 NM_014694 expression Mean", "result": 295.667},
      {"measurement": "ADM NM_001124 expression Mean", "result": 937.101},
      {"measurement": "AFMID NM_0010109 expression Mean", "result": 303.389},
      {"measurement": "AHNAK NM_001620 expression Mean", "result": 522.882},
      {"measurement": "ANAPC13 NM_015391 expression Mean", "result": 549.873},
      {"measurement": "ANXA1 NM_000700 expression Mean", "result": 1242.05},
      {"measurement": "ANXA2 NM_0010028 expression Mean", "result": 3575.79},
      {"measurement": "AW972815 expression Mean", "result": 1125.31},
      {"measurement": "BAG3 NM_004281 expression Mean", "result": 1275},
      {"measurement": "BCL11A NM_022893 expression Mean", "result": 399.892},
      {"measurement": "BIRC5 NM_001168 expression Mean", "result": 873.507},
      {"measurement": "BTG2 NM_006763 expression Mean", "result": 474.998},
      {"measurement": "C9orf6 NM_017832 expression Mean", "result": 333.034},
      {"measurement": "C10orf2 NM_021830 expression Mean", "result": 515.45},
      {"measurement": "C10orf58 NM_032333 expression Mean", "result": 983.117},
      {"measurement": "C16orf93 NM_0010149 expression Mean", "result": 392.581},
      {"measurement": "CA2 NM_000067 expression Mean", "result": 678.212},
      {"measurement": "CATSPER2 NM_172097 expression Mean", "result": 1806.2},
      {"measurement": "CAV1 NM_001753 expression Mean", "result": 740.14},
      {"measurement": "CCND1 NM_053056 expression Mean", "result": 4666.94},
      {"measurement": "CDKN1A NM_000389 expression Mean", "result": 1938.97},
      {"measurement": "CDX1 NM_001804 expression Mean", "result": 802.577},
      {"measurement": "CEACAM1 NM_0010249 expression Mean", "result": 229.793},
      {"measurement": "CIRH1A NM_032830 expression Mean", "result": 1971.98},
      {"measurement": "CLCF1 NM_013246 expression Mean", "result": 340.544},
      {"measurement": "CLDN10 NM_006984 expression Mean", "result": 407.272},
      {"measurement": "CNN3 NM_001839 expression Mean", "result": 1086.56},
      {"measurement": "COL7A1 NM_000094 expression Mean", "result": 1054.31},
      {"measurement": "COL17A1 NM_000494 expression Mean", "result": 521.166},
      {"measurement": "CRABP2 NM_001878 expression Mean", "result": 2128.79},
      {"measurement": "CRIPT NM_014171 expression Mean", "result": 613.112},
      {"measurement": "CTNNB1 NM_0010982 expression Mean", "result": 342.941},
      {"measurement": "CUEDC1 NM_017949 expression Mean", "result": 525.909},
      {"measurement": "CXCL14 NM_004887 expression Mean", "result": 366.998},
      {"measurement": "CXXC1 NM_014593 expression Mean", "result": 1743.77},
      {"measurement": "CXorf40A NM_178124 expression Mean", "result": 324.823},
      {"measurement": "CYR61 NM_001554 expression Mean", "result": 634.193},
      {"measurement": "DDX51 NM_175066 expression Mean", "result": 1671.08},
      {"measurement": "DIMT1L NM_014473 expression Mean", "result": 893.36},
      {"measurement": "DUSP5 NM_004419 expression Mean", "result": 1627.42},
      {"measurement": "EBI3 NM_005755 expression Mean", "result": 650.267},
      {"measurement": "EIF2C2 NM_012154 expression Mean", "result": 794.459},
      {"measurement": "ELF3 NM_004433 expression Mean", "result": 306.008},
      {"measurement": "ELF4 NM_001421 expression Mean", "result": 721.011},
      {"measurement": "EMILIN2 NM_032048 expression Mean", "result": 650.943},
      {"measurement": "EOMES NM_005442 expression Mean", "result": 387.137},
      {"measurement": "FAM53C NM_016605 expression Mean", "result": 2860.96},
      {"measurement": "FAM123B NM_152424 expression Mean", "result": 1182.82},
      {"measurement": "FLJ40504 NM_173624 expression Mean", "result": 3003.39},
      {"measurement": "FOXO3 NM_201559 expression Mean", "result": 639.391},
      {"measurement": "GAD1 NM_000817 expression Mean", "result": 287.008},
      {"measurement": "GAD1 NM_013445 expression Mean", "result": 372.485},
      {"measurement": "GALNAC4S-6 NM_015892 expression Mean", "result": 704.001},
      {"measurement": "GEMIN4 NM_015721 expression Mean", "result": 1411.28},
      {"measurement": "GLIPR2 NM_022343 expression Mean", "result": 792.16},
      {"measurement": "GNL3L NM_019067 expression Mean", "result": 392.011},
      {"measurement": "GNL3 NM_206826 expression Mean", "result": 1332.63},
      {"measurement": "GPATCH4 NM_182679 expression Mean", "result": 1117.44},
      {"measurement": "GPER NM_0010399 expression Mean", "result": 305.922},
      {"measurement": "GPR56 NM_201524 expression Mean", "result": 378.312},
      {"measurement": "GPR56 NM_201525 expression Mean", "result": 392.608},
      {"measurement": "GPR177 NM_0010022 expression Mean", "result": "251.287 and 391.197"},
      {"measurement": "GPR177 NM_024911 expression Mean", "result": 515.533},
      {"measurement": "GTF3C6 NM_138408 expression Mean", "result": 503.701},
      {"measurement": "H2AFY NM_004893 expression Mean", "result": 2387.37},
      {"measurement": "HARS NM_002109 expression Mean", "result": 1887.22},
      {"measurement": "HCLS1 NM_005335 expression Mean", "result": 319.822},
      {"measurement": "HES2 NM_019089 expression Mean", "result": 310.888},
      {"measurement": "HSPA1A NM_005346 expression Mean", "result": 699.362},
      {"measurement": "HSPA8 NM_006597 expression Mean", "result": 3448.31},
      {"measurement": "HSPA8 NM_153201 expression Mean", "result": 5257.42},
      {"measurement": "HSPH1 NM_006644 expression Mean", "result": 565.151},
      {"measurement": "ID3 NM_002167 expression Mean", "result": 3392.56},
      {"measurement": "IER3 NM_003897 expression Mean", "result": 835.676},
      {"measurement": "IL2RB NM_000878 expression Mean", "result": 274.617},
      {"measurement": "ITPRIP NM_033397 expression Mean", "result": 346.452},
      {"measurement": "JTV1 NM_006303 expression Mean", "result": 1876.43},
      {"measurement": "KAT2A NM_021078 expression Mean", "result": 1965.54},
      {"measurement": "KIAA0101 NM_014736 expression Mean", "result": 468.29},
      {"measurement": "KRT8 NM_002273 expression Mean", "result": 3394.59},
      {"measurement": "LEFTY2 NM_003240 expression Mean", "result": 1161.57}
    ]}
  ]
}
